In patent US11293015B2, “Diels-Alderase and use thereof” (Peking University, priority 2020, dated 2022):

B1: MaDA: Diels-Alderase identified from Morus alba, amino acid sequence SEQ ID No.1 (protein)
chain: MQYFSFPSSLAKITIFLIFSFVFASSANDTHEAFLECLTTRIPSNSTFTPQSIIYTPDNPSYSTILDSTTQNPRFLSSSTRNPFAIITPLHASHIQAALYCSQKHGEQMRIRSGGHDYEGLSYQSSVPFFILDLRNLSSISIDAKSKSAWVQAGATIGELYYGIAKTSLNLSFPGGVAHTIGVGGQLGGGGYGYSTRKYGLASDNVIDAQLIDARGRILDRKTMGEDLFWAIRGGGAGSFGIVLAWKIRLVNTPSTVTIFEAVRSWENNTTKKFIRRYQRRASKTDKDLTIFVGFRTTSSTDEEGNERISILTIVSATFHGSKDRLLQLVQKEFPDLGLVSEECTEMSWVRSIIHFNLFGDEVPLEVLLNRTLNFEMKAFKLRSDYVQKPIPDDVLEKLLSKLYDEETGEGYIEFFPYGGKMSKISESEIPFPYRAGNLYNLRYMVSWKDDGNITRTNMHLSWIKDAYDYMTPYVSKDPRGAYLNFRDLDIGVNVNESDYDYVAKASVWGTKYFRNNFYRLVDIKTIVDPTNFFKYEQSIPPLPPLHSAM

Key:
[1] = system: MaDA-1; assay: Enzymatic activity test for MaDA-1; assay type: biochemical, Morus alba; details: Diene 3 100 μM, Dienophile 1 100 μM, SUMO-MaDA-1 27 nM, pH 8.0, 50° C., 10 min
Procedure: (§1) The activity of MaDA-1 was tested as follows: to a 97 μL reaction buffer (20 mm Tris-HCl, pH=8.0), 1 μL of Diene 3 (final concentration of 100 μM) and 1 […] (final concentration of 100 μM) were added, and then 1 μL of SUMO-MaDA protein (final concentration 27 nM) or SUMO-MaDA-1 (final concentration 27 nM) was added. The reaction mixture was reacted at 50° C. for 10 min, then quenched by adding 200 μL methanol, and centrifuged at 13,000 rpm for 30 min. The supernatant was analyzed by HPLC. In the control group as blank control, no protein was added.

[2] = system: MaDA; assay: Enzymatic activity test, MaDA run alongside MaDA-1; assay type: biochemical, Morus alba; details: Diene 3 100 μM, Dienophile 1 100 μM, SUMO-MaDA 27 nM, pH 8.0, 50° C., 10 min
Procedure: as §1

[3] = system: MaDA-2; assay: Activity test of MaDA-2; assay type: biochemical, Morus alba; details: dienophile 100 μM, Diene 3, 22, 23 or 24 100 μM, SUMO-MaDA-2 54 nM, pH 8.0, 50° C., 5 min
Procedure: Under the catalyzation of MaDA-2, the reaction activity between Dienophile 1 and different dienes 3, 22, 23 and 24 was measured following the protocol as follows: to a […] reaction buffer (20 mm Tris-HCl, pH=8.0), 1 μL of Dienophile 1 (final concentration of 100 μM) and 1 μL Diene 3, 22, 23 or 24 (final concentration of 100 μM) were added, and then 1 μL of SUMO-MaDA-2 (final concentration 54 nM) was added. The reaction mixture was reacted at 50° C. for 5 min, then quenched by adding 200 μL methanol. The reaction solution was analyzed by HPLC under the analysis conditions mentioned above, and the results were shown in FIG. 20. […] However, unlike MaDA, MaDA-2 can recognize Dienophile 5 to generate corresponding natural products or their analogs.

[4] = system: MaDA; assay: Conversion of dienophile substrates in the enzymatic D-A reaction; assay type: biochemical, Morus alba
Procedure: In the present Example, the conversion of Dienophiles 1 and 5-9 under enzymatic D-A reaction conditions were also determined. The reaction conditions were as follows:
To 96 μL reaction buffer (20 mM Tris-HCl, pH 8.0) was added 2 μL Diene 3 (final concentration, 200 μM) and 1 μL different chalcones or their derivatives (i.e., Dienophiles 1 and 5-9, final concentration, 100 μM). Then 1 μL MaDA or SUMO-MaDA (final concentration, 540 nM) was added. The resulting mixture was reacted at 50° C. for 5 min. The reactions were terminated by the addition of 200 μl of methanol. The reaction liquid were analyzed using the HPLC analysis condition mentioned above. After three repeated experiments, the conversion of Dienophiles 1, 7, 8, 9, 5 and 6 are determined as 74%, 55%, 13%, 78%, 0%, 71% respectively, as shown in FIG. 12.

[5] = Optimum temperature and pH of MaDA; assay type: biochemical; details: Diene 3 0.1 mM, Dienophile 1 0.1 mM, 0.02 μg MaDA, 5 min, buffers pH 4.0-11.0
Procedure: The effects of different reaction temperatures (25, 30, 35, 40, 45, 50, 55, 60, and 70° C.) on [4+2] cyclization catalyzed by MaDA were investigated using Diene 3 and Dienophile 1 as substrates. The reaction system was as follows: the reaction mixture (100 μL) containing Diene 3 (0.1 mM) and Dienophile 1 (0.1 mM), and 0.02 μg MaDA was reacted for 5 min in Tris HCl buffer at pH 7.5 (the buffer solution was balanced at different temperatures for 15 min in advance). After the reaction, 200 μL ice-cold methanol was added to terminate the reaction, and vortex mixing was carried out. The resulting mixture was centrifuged at 15,000 g for 30 min. The supernatant was analyzed by HPLC. […] The conversion of the substrate was calculated by substituting the peak area of the product into the standard curve to calculate the reduction of the substrate.
The effects of buffer at different pH (pH 4.0-6.0, citric acid-sodium citrate buffer; 6.0-7.0, disodium hydrogen phosphate-sodium dihydrogen phosphate buffer; 7.0-9.0, Tris HCl buffer; 9.0-11.0, sodium carbonate-sodium bicarbonate buffer) on the [4+2] cyclization reaction of MaDA was investigated using Diene 3 and Dienophile 1 as substrates. […] The supernatant was analyzed by HPLC. […] The conversion of the substrate was calculated by substituting the peak area of the product into the standard curve to calculate the reduction of substrate.

Chain of MaDA-2 (as listed by the source): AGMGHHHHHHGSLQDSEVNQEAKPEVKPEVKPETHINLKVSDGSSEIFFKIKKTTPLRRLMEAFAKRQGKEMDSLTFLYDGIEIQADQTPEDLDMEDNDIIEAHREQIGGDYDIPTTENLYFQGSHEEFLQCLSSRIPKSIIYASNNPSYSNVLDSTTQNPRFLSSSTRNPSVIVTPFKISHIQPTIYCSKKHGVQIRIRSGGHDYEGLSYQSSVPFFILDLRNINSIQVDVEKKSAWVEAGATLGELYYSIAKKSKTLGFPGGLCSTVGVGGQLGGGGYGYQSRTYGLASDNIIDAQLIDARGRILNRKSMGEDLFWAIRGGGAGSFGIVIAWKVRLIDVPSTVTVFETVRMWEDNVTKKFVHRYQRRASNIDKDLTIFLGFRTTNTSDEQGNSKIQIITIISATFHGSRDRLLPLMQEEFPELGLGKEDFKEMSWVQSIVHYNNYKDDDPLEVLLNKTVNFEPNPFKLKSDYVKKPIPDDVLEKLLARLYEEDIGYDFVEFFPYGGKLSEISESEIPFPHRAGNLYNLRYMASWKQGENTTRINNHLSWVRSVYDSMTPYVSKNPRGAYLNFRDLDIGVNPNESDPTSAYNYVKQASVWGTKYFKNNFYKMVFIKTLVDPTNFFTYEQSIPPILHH

Row | Molecule | consumption of substrate with MaDA-1, chalcomoracin (4) produced [1] | consumption of substrate with MaDA, chalcomoracin (4) produced [2] | MaDA-2 catalysed reaction between dienophile and different dienes [3] | conversion of dienophile ([4]; Diene 3 200 μM, dienophile 100 μM, MaDA or SUMO-MaDA 540 nM, pH 8.0, 50° C., 5 min, three repeated experiments) | effective recognition of dienophile by MaDA protein ([4]; same condition as the conversion test (540 nM enzyme, 50° C., 5 min)) | optimum pH [5]
1 | C=C(C)/C=C/c1c(O)cc(-c2cc3ccc(O)cc3o2)cc1O [Diene 3] | almost completely consumed | almost completely consumed |  |  |  | 
2 | morachalcone A [Dienophile 1] | almost completely consumed | almost completely consumed | can also catalyze the reaction | 74% | effectively recognize | 
3 | B1 |  |  |  |  |  | 8.0
